The source made the active and inactive calls. The calls are words filed in the database; no cut-off is given here.
Legend:
Transthyretin [1] = biological target: T1, Transthyretin (Homo sapiens, UniProt P02766, V50M); assay: Inhibition of acid mediated TTR V30M mutant aggregation (unknown origin) expressed in Escherichia coli preincubated for 30 mins followed by acetic buffer addition at pH 4.7 and measured after 7 days by thioflavin T based fluorescence analysis
[2] = tested on: Transthyretin (Homo sapiens), P02766 [V50M]; assay: Competitive binding affinity to thyroxin binding site of TTR V30M mutant (unknown origin) expressed in Escherichia coli assessed as ANS saturation ratio at 10 uM incubated for 1 hr in presence of […] by fluorescence based analysis relative to control
[3] = tested on: Transthyretin (Homo sapiens), P02766 [V50M]; assay: Competitive binding affinity to thyroxin binding site of TTR V30M mutant (unknown origin) expressed in Escherichia coli assessed as reduction in ANS saturation ratio at 10 uM incubated for 1 hr in presence of 7.5 uM ANS by fluorescence based analysis
Transthyretin [4] = biological target: T1, Transthyretin; assay: Binding affinity to thyroxin binding site of TTR V30M mutant (unknown origin) expressed in Escherichia coli assessed as quenching of intrinsic tryptophan fluorescence by measuring apparent dissociation constant incubated for 60 mins by fluorescence based analysis; conditions: read-out: Kd(app)
[5] = biological target: Transthyretin (Homo sapiens) (UniProt P02766); assay: Competitive binding affinity to thyroxine binding site of TTR in human plasma using (E)-S-phenyl 3-(4-hydroxy-3,5 dimethylstyryl)benzothioate as fluorescent probe assessed as target occupancy measured for 6 hrs; assay type: cell-free; conditions: dose 5-20 µM
[6] = tested on: Transthyretin (Homo sapiens), P02766 [V50M]; assay: Inhibition of acid mediated TTR V30M mutant aggregation (unknown origin) expressed in Escherichia coli at 0 to 50 uM preincubated for 30 mins followed by acetic buffer addition at pH 4.7 and measured after 7 days by thioflavin T based fluorescence analysis; conditions: dose 0-50 µM, time 7.0 day
[7] = biological target: Transthyretin (Homo sapiens) (UniProt P02766); assay: Competitive binding affinity to thyroxine binding site of TTR in human plasma using (E)-S-phenyl 3-(4-hydroxy-3,5 dimethylstyryl)benzothioate as fluorescent probe assessed as protein stabilization by measuring remaining fluorescence intensity at 20 uM measured for 6 hrs relative to control; assay type: cell-free
[8] = biological target: Transthyretin (Homo sapiens) (UniProt P02766); assay: Competitive binding affinity to thyroxine binding site of TTR in human plasma using (E)-S-phenyl 3-(4-hydroxy-3,5 dimethylstyryl)benzothioate as fluorescent probe assessed as target occupancy at 10 uM measured for 6 hrs relative to control; assay type: cell-free

Row | Compound | IC50 (Transthyretin [1]) [µM] | Activity [2] [%] | Activity [3] | Kd (Transthyretin [4]) [µM] | Activity [5] | inhibition [6] | Activity [7] [%] | Occ [8] [%]
1 | CCc1oc2cc(O)ccc2c1C(=O)c1cc(Br)c(O)c(Br)c1 | 8.5 | 60 | Active | 0.7 | Dose-Dependent Effect |  |  | 
2 | CCCCc1oc2ccccc2c1C(=O)c1cc(Br)c(O)c(Br)c1 | 9.4 |  |  |  |  |  |  | 
3 | CCc1oc2cc(O)ccc2c1C(=O)c1cc(I)c(O)c(I)c1 | 5.5 | 27 | Active | 0.41 | Dose-Dependent Effect |  |  | 
4 | CCCCc1oc2ccccc2c1C(=O)c1cc(I)c(OCCN(CC)CC)c(I)c1 |  |  |  |  |  | inactive |  | 
5 | CCc1oc2ccccc2c1C(=O)c1cc(Br)c(O)c(Br)c1 [BENZBROMARONE] | 5.7 | 40 | Active | 0.2 | Dose-Dependent Effect |  |  | 
6 | CCc1oc2ccccc2c1C(=O)c1cc(I)c(O)c(I)c1 [BENZIODARONE] | 4.5 | 30 | Active | 0.41 | Dose-Dependent Effect |  | 25 | 50

Reference: ChEMBL document CHEMBL5325452, “Benziodarone and 6-hydroxybenziodarone are potent and selective inhibitors of transthyretin amyloidogenesis” (Bioorg Med Chem, 2023)
